The text below walks through data of patent US20110124523A1, “High Throughput Method for Detecting Apoptosis of Embryonic Stages of Metazoan Helminthic Parasites” (INSTITUTE OF LIFE SCIENCES, priority 2009, published 2011).

For assay [1], the system named is embryonic stages of S. digitata. The assay can be described thus: Fragmentation of chromosomal DNA, TUNEL staining. It counts as cell-based, Setaria digitata. The following applies: for GMI (Geometric Mean Intensity) of Fluorescence, TUNEL Staining: 24 hr; for induction of DNA fragmentation (result in words): Mf stages and eggs, TUNEL assay. As to the method: Adult female filarial worms Setaria digitata were collected from the peritoneum of cattle, slaughtered at a nearby abattoir in sterile Hanks Balanced Salt Solution (HBSS) medium (Sigma H 2387-1L) and transported to the laboratory in a sterile container. The medium containing 1% glucose (Sigma G 7528), Penicillin 100 units/ml, Streptomycin 100 μg/ml (Sigma P 4333). And Amphotericin-B 0.25 μg/ml (Sigma A 2942) was buffered with NaHCO3 (Sigma S 5761). About 5 to 7 worms were taken in a petridish, washed three times in medium, dissected into small pieces in 10 ml of medium under sterile conditions and incubated at 37° C. for 30 minutes to allow the release of embryonic stages (eggs and microfilariae) into the medium. The embryonic stages were harvested into sterile 15 ml. centrifuge tubes and washed three times by centrifuging at 300 g for 10 minutes each with medium and the final pellet was suspended in 1 ml. of RPMI-1640 medium (Sigma R 8005) supplemented with 10% FBS (Sigma F 2442) The number of embryonic stages of S. digitata in the above preparation were counted using light microscope, and the suspension was taken in RPMI-1640 medium containing 10% FBS at 1×10^5 embryonic stages/ml. One ml. each was dispensed into individual wells of a 24 well tissue culture plate. One set of wells was taken as untreated control containing only medium with 10% FBS. […] Motility of the Mf was scored under an inverted microscope. After appropriate treatment and incubation, each set of the cultured embryonic stages of S. digitata were harvested from the 24 well tissue culture plate separately in 15 ml. sterile centrifuge tubes, washed with PBS twice and stained as per requirement following manufacturer's instructions as described below. This was followed by two times washing with PBS and final suspension of the stained embryonic stages was taken in 0.5 ml of sheath fluid (BD Biosciences 342003) before their acquisition in the flow cytometer (BD FACS Calibur, Becten and Dickinson, USA). Analysis was performed on 10,000-acquired events depicted as Dot Plots and Histogram Plots using Cellquest Pro soft ware. All plots were representative of at least 3 experiments. The distinctly clustered populations obtained consistently in the Dot plots for the intra uterine embryonic stages of S. digitata (FIG. 1 a) were gated for Mfs (R-1) and eggs (R-2 and R-3) and analyzed for different assays for apoptosis as described below. Presence of fragmentation of chromosomal DNA was detected by TUNEL staining. Briefly, the treated embryonic stages were harvested, fixed with 1% Para formaldehyde followed by washing with PBS and stored in 70% ethanol at −20° C.

For assay [2] the test system is unchanged. Put plainly: Intra cellular expression of CED-3 protein, flow cytometry. The class given is cell-based, Setaria digitata. Particulars: 24 hr. As to the method:
Adult female filarial worms Setaria digitata were collected from the peritoneum of cattle, slaughtered at a nearby abattoir in sterile Hanks Balanced Salt Solution (HBSS) medium (Sigma H 2387-1L) and transported to the laboratory in a sterile container. The medium containing 1% glucose (Sigma G 7528), Penicillin 100 units/ml, Streptomycin 100 μg/ml (Sigma P 4333). And Amphotericin-B 0.25 μg/ml (Sigma A 2942) was buffered with NaHCO3 (Sigma S 5761). About 5 to 7 worms were taken in a petridish, washed three times in medium, dissected into small pieces in 10 ml of medium under sterile conditions and incubated at 37° C. for 30 minutes to allow the release of embryonic stages (eggs and microfilariae) into the medium. The embryonic stages were harvested into sterile 15 ml. centrifuge tubes and washed three times by centrifuging at 300 g for 10 minutes each with medium and the final pellet was suspended in 1 ml. of RPMI-1640 medium (Sigma R 8005) supplemented with 10% FBS (Sigma F 2442) The number of embryonic stages of S. digitata in the above preparation were counted using light microscope, and the suspension was taken in RPMI-1640 medium containing 10% FBS at 1×10^5 embryonic stages/ml. One ml. each was dispensed into individual wells of a 24 well tissue culture plate. One set of wells was taken as untreated control containing only medium with 10% FBS. […] Motility of the Mf was scored under an inverted microscope. After appropriate treatment and incubation, each set of the cultured embryonic stages of S. digitata were harvested from the 24 well tissue culture plate separately in 15 ml. sterile centrifuge tubes, washed with PBS twice and stained as per requirement following manufacturer's instructions as described below. This was followed by two times washing with PBS and final suspension of the stained embryonic stages was taken in 0.5 ml of sheath fluid (BD Biosciences 342003) before their acquisition in the flow cytometer (BD FACS Calibur, Becten and Dickinson, USA). Analysis was performed on 10,000-acquired events depicted as Dot Plots and Histogram Plots using Cellquest Pro soft ware. All plots were representative of at least 3 experiments. The distinctly clustered populations obtained consistently in the Dot plots for the intra uterine embryonic stages of S. digitata (FIG. 1 a) were gated for Mfs (R-1) and eggs (R-2 and R-3) and analyzed for different assays for apoptosis as described below. After in vitro culture for 24 hours with apoptosis inducing reagents the embryonic stages were harvested in 15 ml, sterile centrifuge tubes and fixed for 60 minutes at 0° C. in 1% paraformaldehyde (Sigma P 6148) in PBS. The suspension was washed first with PBS and then with 1× permeabilisation buffer (eBioscience 00-8333-56) and finally resuspended in 100 μl of 1× permeabilisation buffer at 1×10^5 embryonic stages per ml. The intra cellular expression of CED-3 was scored by incubation of the fixed and permeabilised embryonic stages with primary goat antibodies—anti CED-3 (Santacruz sc-9192) followed by Probing with PE conjugated secondary anti goat IgG-PE (Santacruz sc-3747) antibodies. Incubation of both primary and secondary antibodies (both 1/100 diluted) was done successively in 1× permeabilisation buffer (e Bioscience 00-8333-56) for 1 hr and 45 minutes respectively. The suspension of stained embryonic stages was then washed with PBS twice and finally reading was taken by flow cytometry.
In general terms: Flow cytometry measures light scatter and fluorescence of single cells or particles in a stream.

Molecules are shown by their SMILES. Where “and” joins values, the source holds several entries; their conditions need not be identical. Identical values can stand only once.

`OO` [H2O2]: the “GMI (Geometric Mean Intensity) of Fluorescence, TUNEL Staining” value (“GMI … TUNEL Staining” below) in assay [1] (Eggs, 10 μM) is 70.85 and 71.36 and 72.56; in assay [1] (Microfilariae, 10 μM) it was 13.62 and 12.52 and 14.16. Besides, the “induction of DNA fragmentation (result in words)” value in assay [1] is “dose dependent induction of DNA fragmentation”. Further, the “GMI (Geometric Mean Intensity) of Fluorescence, CED-3 Expression” value (“GMI … CED-3 Expression” below) was 98.25 and 100.22 and 97.56 in assay [2] (Eggs, 10 μM); 10.99 and 12.38 and 9.95 in assay [2] (Microfilariae, 10 μM).

For `CN[C@@H]1C[C@H]2O[C@@](C)([C@@H]1OC)n1c3ccccc3c3c4c(c5c6ccccc6n2c5c31)C(=O)NC4` [Staurosporine], the “GMI … TUNEL Staining” value was 65.77 and 60.33 and 71.25 in assay [1] (Eggs, 1 μM); 10.67 and 10.02 and 12.15 in assay [1] (Microfilariae, 1 μM). For the same molecule, the “GMI … CED-3 Expression” value is 92.71 and 96.07 and 90.32 in assay [2] (Eggs, 1 μM); 8.33 and 8.10 and 7.39 in assay [2] (Microfilariae, 1 μM).

`CC1=CC(=O)c2c(O)cccc2C1=O` [Plumbagin]: the “GMI … TUNEL Staining” value is 104.33 and 109.68 and 105.32 in assay [1] (Eggs, 10 μM); 40.65 and 38.97 and 45.76 in assay [1] (Microfilariae, 10 μM). Also, the “induction of DNA fragmentation (result in words)” value in assay [1] was “dose dependent induction of DNA fragmentation”. For the same molecule, in assay [1] (Plumbagin compared with H2O2), the “efficiency in induction of apoptosis (comparison in words)” value is recorded as “more efficient than H2O2 in induction of apoptosis”. The “GMI … CED-3 Expression” value in assay [2] (Eggs, 10 μM) is 205.26 and 207.37 and 200.17; in assay [2] (Microfilariae, 10 μM), 32.75 and 34.96 and 31.33.
